The results in this text go back to patent publication US10301317B2, “Inhibitors of ERK and methods of use” (Kura Oncology, Inc., priority 2013, dated 2019).

One may read the IC50 as the concentration needed to halve the response being measured.

Molecules are shown by their SMILES.

The subject of the assay is phospho-p90 RSK (RSK1 Thr359/Ser363) in A375 (Braf V600E) cells. The experiment in a line: Phospho-p90 RSK ELISA using A375 (Braf V600E) cells. The assay is classed as cell-based. To be noted: Homo sapiens, A-375, 2 hours compound treatment, read-out: Cellular Phospho-p90RSK IC50. Here is the method: In preparation for the assay, an ELISA plate with the pre-coated goat anti-mouse antibody (Thermo Scientific) was treated with a mouse anti-human RSK1 antibody (monoclonal, Invitrogen) at 1:800 dilution (150 ng/well) in PBS, and the plate was placed on a plate shaker at 4° C. overnight. […] After two […] of the compound treatment, the supernatant was removed from the cell plate, and cells were lysed in 100 μl per well of cell lysis buffer (Cell Signaling Technologies) containing phosphatase and protease inhibitors (Cell Signaling Technologies) on a plate shaker at 4° C. for 20 minutes. The ELISA plate was washed four times with ELISA wash buffer (Thermo Scientific) prior to addition of 100 μL cell lysate. The lysate was incubated on the ELISA plate with gentle shaking at room temperature for 2 hours. The contents of the wells were removed, and the ELISA plate was washed four times with wash buffer, and incubated with 100 μL per well of anti-phospho-RSK1 (Thr359/Ser363) rabbit monoclonal antibody (Millipore) at dilution of 1:1000 in StartingBlock buffer (Thermo Scientific) on a plate shaker at room temperature for 1 hour. The contents of the wells were removed, the ELISA plate was washed four times with wash buffer, and was incubated with 100 μL per well of goat anti-rabbit HRP (Thermo Scientific) at dilution of 1:3000 in StartingBlock buffer (Thermo Scientific) on a plate shaker at room temperature for 1 hour. The contents of the wells were removed, the ELISA plate was washed four times with wash buffer, and then incubated with 100 μL per well of TMB substrate solution (Thermo Scientific) on a plate shaker at room temperature for 20 minutes. Finally, 100 μL of TMB stop solution (Thermo Scientific) was added to each well and the absorbance is measured at 450 nm on a Tecan plate reader.
Background: In an ELISA, binding on a coated surface is turned into a signal by an enzyme label.
Turning to `Cc1cc(-c2n[nH]c3cc4c(cc23)CN([C@@H]2CCCN(CC(O)C(C)(C)C)C2)C(=O)N4)ccn1` (stereo partly shown) [Example 236], the IC50 is more than 1000 nM.

As for `Cc1cc(-c2n[nH]c3cc4c(cc23)CN([C@@H]2CCCN(c3cccc(C)n3)C2)C(=O)N4)ccn1` [Example 238], the half-maximal inhibitory concentration (IC50) is not above 250 nM.

Regarding `Cc1cc(-c2n[nH]c3cc4c(cc23)CN(Cc2nc(C)cs2)C(=O)N4)ccn1` [Example 246], the IC50 was not above 250 nM.

In the case of `Cc1cc(-c2n[nH]c3cc4c(cc23)CN([C@@H]2CCCN(C(C)C)C2)C(=O)N4)ccn1` [Example 247], the IC50 is more than 1000 nM.

For `Cc1cc(-c2n[nH]c3cc4c(cc23)CN([C@@H]2CCN(c3cccc(Cl)c3)C2)C(=O)N4)ccn1` [Example 249], the half-maximal inhibitory concentration (IC50) is not above 250 nM.

With `Cc1cc(-c2n[nH]c3cc4c(cc23)CN(CC2CCOCC2)C(=O)N4)cc(C)n1` [Example 250], the IC50 was not above 250 nM.

As for `Cc1cc(-c2n[nH]c3cc4c(cc23)CN(CC2CCC2)C(=O)N4)ccn1` [Example 253], the IC50 was not above 250 nM.

`Cc1cc(-c2n[nH]c3cc4c(cc23)CN([C@@H]2CCN(C)C2)C(=O)N4)ccn1` [Example 255]: the IC50 was more than 1000 nM.

Turning to `CCN1CC[C@@H](N2Cc3cc4c(-c5ccnc(C)c5)n[nH]c4cc3NC2=O)C1` [Example 256], the IC50 was more than 1000 nM.

As for `Cc1cc(-c2n[nH]c3cc4c(cc23)CN(CC2CC2)C(=O)N4)ccn1` [Example 258], the half-maximal inhibitory concentration (IC50) is not above 250 nM.

In the case of `Cn1cc(-c2n[nH]c3cc4c(cc23)CN([C@@H]2CCN(CC(F)(F)F)C2)C(=O)N4)cn1` [Example 259], the IC50 is not above 250 nM.

In the case of `CN(C)CCN1CCN(c2n[nH]c3cc4c(cc23)CN(Cc2ccc(F)c(Cl)c2)C(=O)N4)CC1` [Example 260], the IC50 was more than 1000 nM.

`Cn1nccc1-c1n[nH]c2cc3c(cc12)CN([C@@H]1CCCN(Cc2ccccc2)C1)C(=O)N3` [Example 261]: the IC50 was not above 250 nM.

With `Cc1cc(-c2n[nH]c3cc4c(cc23)CN(C(C)C2CCOCC2)C(=O)N4)ccn1` (stereo not shown) [Example 262], the 50% inhibitory concentration (IC50) is not above 250 nM.

On to `Cc1cc(-c2n[nH]c3cc4c(cc23)CN([C@@H]2CN(Cc3ccccc3)CC(F)(F)C2)C(=O)N4)ccn1` [Example 263], for which the IC50 is more than 1000 nM.

As for `Cn1nccc1-c1n[nH]c2cc3c(cc12)CN([C@@H]1CCN(CC(F)(F)F)C1)C(=O)N3` [Example 265], the IC50 was more than 1000 nM.

Turning to `Cc1cc(-c2n[nH]c3cc4[nH]c(=O)c(CC5CCCCC5)cc4cc23)ccn1` [Example 266], the IC50 was not above 250 nM.

As for `Cc1cc(-c2n[nH]c3cc4c(cc23)CN([C@@H]2CCN(C(C)C)C2)C(=O)N4)ccn1` [Example 268], the IC50 was more than 1000 nM.

For `Cc1ccc(-c2n[nH]c3cc4c(cc23)CN([C@@H]2CCN(CC(F)(F)F)C2)C(=O)N4)cn1` [Example 274], the IC50 is not above 250 nM.

On to `COc1ncc(-c2n[nH]c3cc4c(cc23)CN([C@@H]2CCN(CC(F)(F)F)C2)C(=O)N4)cn1` [Example 276], for which the concentration for half-maximal inhibition (IC50) was not above 250 nM.

For the molecule `COc1ccc(-c2n[nH]c3cc4c(cc23)CN([C@@H]2CCN(CC(F)(F)F)C2)C(=O)N4)cn1` [Example 277], the IC50 is not above 250 nM.

For the molecule `Cc1cc(-c2n[nH]c3cc4c(cc23)CN(CCC2CC2)C(=O)N4)ccn1` [Example 283], the IC50 is more than 1000 nM.

As to `Cc1cc(-c2n[nH]c3cc4c(cc23)CN(C(C)c2nc(C)c(C)s2)C(=O)N4)ccn1` (stereo not shown) [Example 286], the IC50 was not above 250 nM.

For `Cc1cc(-c2n[nH]c3cc4[nH]c(=O)c([C@@H](C)c5ccc(F)cc5)cc4cc23)ccn1` [Example 287], the IC50 was 250 to 1000 nM.

In the case of `Cc1cc(-c2n[nH]c3cc4[nH]c(=O)c(C5CCCC5)cc4cc23)ccn1` [Example 289], the IC50 is 250 to 1000 nM.

`Cc1cc(-c2n[nH]c3cc4c(cc23)CN([C@@H]2CCCN(Cc3ccc(F)s3)C2)C(=O)N4)ccn1` [Example 290]: the IC50 was not above 250 nM.

On to `Cc1cc(-c2n[nH]c3cc4c(cc23)CN(C(C)C2CCCC2)C(=O)N4)ccn1` (stereo not shown) [Example 294], for which the IC50 is not above 250 nM.

On to `COc1ncc(-c2n[nH]c3cc4c(cc23)CN([C@@H]2CCCN(Cc3cccs3)C2)C(=O)N4)cn1` [Example 295], for which the IC50 was not above 250 nM.

Consider `Cc1cc(-c2n[nH]c3cc4c(cc23)CN([C@H]2CN(C(C)C)C[C@@H]2c2ccccc2)C(=O)N4)ccn1` [Example 296], for which the IC50 is more than 1000 nM.

On to `Cn1cc(-c2n[nH]c3cc4c(cc23)CN([C@@H]2CCCN(Cc3cccs3)C2)C(=O)N4)cn1` [Example 298], for which the IC50 was not above 250 nM.

In the case of `Cc1cc(-c2n[nH]c3cc4c(cc23)CN([C@H]2CCN(CC(F)(F)F)C2)C(=O)N4)ccn1` [Example 299], the IC50 is not above 250 nM.

For the molecule `Cc1cc(-c2n[nH]c3cc4c(cc23)CN([C@H]2CN(CC(F)(F)F)C[C@@H]2c2ccccc2)C(=O)N4)ccn1` [Example 303], the IC50 was more than 1000 nM.

For the molecule `Cc1cc(-c2n[nH]c3cc4c(cc23)CN([C@H]2CN(C)C[C@@H]2c2ccccc2)C(=O)N4)cc(C)n1` [Example 307], the half-inhibitory concentration (IC50) lay in the range of 250 to 1000 nM.

For the molecule `Cc1cc(-c2n[nH]c3cc4c(cc23)CN([C@H]2CCCN(CC(F)(F)F)C2)C(=O)N4)ccn1` [Example 309], the IC50 was 250 to 1000 nM.

Consider `Cc1cc(-c2n[nH]c3cc4c(cc23)CN([C@H]2CCN(CC(F)(F)F)C2)C(=O)N4)cc(C)n1` [Example 310], for which the IC50 fell in the range of 250 to 1000 nM.

Consider `Cc1cc(-c2n[nH]c3cc4[nH]c(=O)c(C(C)c5ccc(F)cc5F)cc4cc23)ccn1` (stereo not shown) [Example 312], for which the IC50 is not above 250 nM.

As for `Cc1cc(-c2n[nH]c3cc4c(cc23)CN([C@@H]2CCC[C@@H](NCc3ccccc3)C2)C(=O)N4)ccn1` [Example 313], the IC50 fell in the range of 250 to 1000 nM.

Consider `Cc1cc(-c2n[nH]c3cc4c(cc23)CN([C@@H]2CN(CC(F)(F)F)C[C@H]2C(C)(C)C)C(=O)N4)ccn1` [Example 329], for which the IC50 was more than 1000 nM.

On to `CC(c1ccccc1)c1cc2cc3c(-c4cnc(N)nc4)n[nH]c3cc2[nH]c1=O` (stereo not shown) [Example 334], for which the IC50 was not above 250 nM.

Regarding `Cc1ncccc1-c1n[nH]c2cc3[nH]c(=O)c(C(C)c4ccccc4)cc3cc12` (stereo not shown) [Example 335], the IC50 was more than 1000 nM.

As for `Cc1cc(-c2n[nH]c3cc4[nH]c(=O)c(C5CCCN(Cc6cc(F)ccc6F)C5)cc4cc23)ccn1` (stereo not shown) [Example 336], the IC50 is not above 250 nM.

Take `O=C1Nc2cc3[nH]nc(-c4ccnnc4)c3cc2CN1[C@@H]1CN(CC(F)(F)F)C[C@H]1c1ccccc1` [Example 340]: the IC50 was not above 250 nM.

Turning to `O=C1Nc2cc3[nH]nc(-c4cccnc4)c3cc2CN1[C@@H]1CN(CC(F)(F)F)C[C@H]1c1ccccc1` [Example 341], the IC50 was not above 250 nM.

As to `O=C1Nc2cc3[nH]nc(-c4ccncc4)c3cc2CN1[C@@H]1CN(CC(F)(F)F)C[C@H]1c1ccccc1` [Example 342], the IC50 is not above 250 nM.

`Cc1cnccc1-c1n[nH]c2cc3[nH]c(=O)c(C(C)c4ccccc4)cc3cc12` (stereo not shown) [Example 343]: the half-maximal inhibitory concentration (IC50) was more than 1000 nM.

For the molecule `CC(c1ccccc1)c1cc2cc3c(-c4ccnc(N)c4)n[nH]c3cc2[nH]c1=O` (stereo not shown) [Example 344], the IC50 was not above 250 nM.

In the case of `CC(c1ccccc1)c1cc2cc3c(N4CCOCC4)n[nH]c3cc2[nH]c1=O` (stereo not shown) [Example 345], the IC50 is not above 250 nM.

Consider `Cn1cc(-c2n[nH]c3cc4c(cc23)CN([C@@H]2CN(CC(F)(F)F)C[C@H]2c2ccccc2)C(=O)N4)ccc1=O` [Example 346], for which the half-inhibitory concentration (IC50) was not above 250 nM.

In the case of `CC(c1ccccc1)c1cc2cc3c(-c4ccc(=O)n(C)c4)n[nH]c3cc2[nH]c1=O` (stereo not shown) [Example 347], the half-inhibitory concentration (IC50) is not above 250 nM.

As to `COc1ncc(-c2n[nH]c3cc4c(cc23)CN([C@@H]2CN(CC(F)(F)F)C[C@H]2c2ccccc2)C(=O)N4)cn1` [Example 348], the IC50 was not above 250 nM.

On to `Cc1ncc(-c2n[nH]c3cc4c(cc23)CN([C@@H]2CN(CC(F)(F)F)C[C@H]2c2ccccc2)C(=O)N4)cn1` [Example 349], for which the IC50 is not above 250 nM.

In the case of `Cn1nccc1-c1n[nH]c2cc3c(cc12)CN([C@@H]1CN(CC(F)(F)F)C[C@H]1c1ccccc1)C(=O)N3` [Example 350], the IC50 was more than 1000 nM.

Regarding `Nc1ncc(-c2n[nH]c3cc4c(cc23)CN([C@@H]2CN(CC(F)(F)F)C[C@H]2c2ccccc2)C(=O)N4)cn1` [Example 351], the IC50 lay in the range of 250 to 1000 nM.

With `Cn1cc(-c2n[nH]c3cc4c(cc23)CN([C@@H]2CN(CC(F)(F)F)C[C@H]2c2ccccc2)C(=O)N4)cn1` [Example 352], the IC50 is not above 250 nM.

Take `CC(c1ccccc1)c1cc2cc3c(N4CCN(C)CC4)n[nH]c3cc2[nH]c1=O` (stereo not shown) [Example 358]: the IC50 is more than 1000 nM.

As for `Cc1cc(-c2n[nH]c3cc4[nH]c(=O)c(C5CCCN(Cc6ccccc6)C5)cc4cc23)cc(C)n1` (stereo not shown) [Example 360], the concentration for half-maximal inhibition (IC50) was 250 to 1000 nM.

On to `Cc1cc(-c2n[nH]c3cc4c(cc23)CN([C@H]2CCCN(Cc3ccccc3)C2)C(=O)N4)cc(C)n1` [Example 363], for which the IC50 was more than 1000 nM.

With `COc1ncc(-c2n[nH]c3cc4c(cc23)CN([C@H]2CCCN(Cc3ccccc3)C2)C(=O)N4)cn1` [Example 365], the half-maximal inhibitory concentration (IC50) is more than 1000 nM.
